Columns and labels:
[1] = system: CETP; experiment: Effects on CETP activity value in high fat diet hamster; format: in vivo, Syrian hamsters; conditions: high fat diet + 2% test substance, 21st day of the administration (FIG. 4)
Description: 6 week old male Syrian hamsters (Japan SLC, Inc.) were bred at a temperature of 23±3° C. and a light-dark cycle of 12 hours on a free feeding of standard diet for 11 days, and the hamsters were divided into 4 groups, namely, standard forage group (Standard) (n=4), high-fat diet group (n=8), EPA group (HF+EPA-E) (n=8), and DHA group (HF+DHA-E) (n=7). The standard diet used was CLEA Rodent Diet CE-2 (4.8% fat) manufactured by CLEA Japan, Inc. and the high fat diet (HF) used was Hypercholesterolemic Hamster Diet (9% sugar and fat 21% fat) manufactured by Wilson. The action of the EPA and the DHA on the CETP activity value was confirmed by using the hamsters fed on a high fat diet. Along with the experiment of the action of suppressing the body weight gain in Experimental Example 1, blood was collected at day 7, 14, and 21 after the starting of the administration, and plasma was separated by centrifugation. Plasma CETP activity value was measured by using a test reagent (CETP activity assay kit manufactured by Bio Vision).

[2] = system: obesity model hamster fed on a high fat diet; experiment: Effect of suppressing the body weight gain in the obesity model hamster fed on a high fat diet; format: in vivo, Syrian hamsters; conditions: for body weight gain rate on the 21st day: mixed diet of high fat diet + 2% test substance, compared with high-fat diet group (FIG. 1)
Description: 6 week old male Syrian hamsters (Japan SLC, Inc.) were bred at a temperature of 23±3° C. and a light-dark cycle of 12 hours on a free feeding of standard diet for 11 days, and the hamsters were divided into 4 groups, namely, standard forage group (Standard) (n=4), high-fat diet group (n=8), EPA group (HF+EPA-E) (n=8), and DHA group (HF+DHA-E) (n=7). The standard diet used was CLEA Rodent Diet CE-2 (4.8% fat) manufactured by CLEA Japan, Inc. and the high fat diet (HF) used was Hypercholesterolemic Hamster Diet (9% sugar and fat 21% fat) manufactured by Wilson. The effects of the EPA and DHA on the body weight gain were confirmed by using hamsters fed on a high fat diet (HF). During the feeding on the high fat diet, a mixed diet of high fat diet+2% EPA-E (comprising 98.24% EPA-E manufactured by Nippon Suisan Kaisha, Ltd.) was given to the EPA group, and a mixed diet of high fat diet+2% DHA-E (comprising 97.4% DHA-E manufactured by Equateq Ltd.) was given to the DHA group (with the diet changed once a day in the morning). The control group was given a high fat diet or a standard diet (comprising 4.8% fat) (with the diet changed once a day in the morning). The body weight was measured from the day of the start of the administration. The body weight gain rate on the 21st day was higher in the group fed on the high-fat diet group compared to the standard forage group, and the group fed on the high-fat diet was in the condition of obesity. […] This confirms that the action of suppressing the body weight gain (or reducing the body weight) of the EPA-E is realized by the action of suppressing (or reducing) the amount of fat, namely, the anti-obesity action.

[3] = system: plasma LDL-C; experiment: Effects on LDL-C level in high fat diet hamster; format: in vivo, Syrian hamsters; conditions: high fat diet + 2% test substance, 21st day of the administration (FIG. 3)
Description: 6 week old male Syrian hamsters (Japan SLC, Inc.) were bred at a temperature of 23±3° C. and a light-dark cycle of 12 hours on a free feeding of standard diet for 11 days, and the hamsters were divided into 4 groups, namely, standard forage group (Standard) (n=4), high-fat diet group (n=8), EPA group (HF+EPA-E) (n=8), and DHA group (HF+DHA-E) (n=7). The standard diet used was CLEA Rodent Diet CE-2 (4.8% fat) manufactured by CLEA Japan, Inc. and the high fat diet (HF) used was Hypercholesterolemic Hamster Diet (9% sugar and fat 21% fat) manufactured by Wilson. The action of the EPA and the DHA on the LDL-C level was confirmed by using the hamsters fed on a high fat diet. Along with the experiment of the action of suppressing the body weight gain in Experimental Example 1, blood was collected at day 7, 14, and 21 after the starting of the administration, and plasma was separated by centrifugation. Plasma LDL-C concentration was measured by using a commercially available test reagent (Wako L-Type LDL-C manufactured by Wako Pure Chemical Industries).

[4] = system: model mouse with obesity associated with enhanced hepatic lipogenesis or fatty liver; conditions: model mouse continuously fed on a high-fat and high-sugar diet; cited from earlier work
[5] = system: model mouse with obesity not associated with the enhancement of hepatic lipogenesis or fatty liver; conditions: model mouse continuously fed on a high-fat diet; cited from earlier work

Structure (SMILES) | plasma CETP activity value [1] | body weight gain rate on the 21st day [2] | plasma LDL-C level [3] | amount of fat in the epididymis on the 21st day ([2]; high fat diet + 2% test substance, 21st day (FIG. 2)) | suppression of body weight gain [4] | suppression of body weight gain [5]
CC/C=C\C/C=C\C/C=C\C/C=C\C/C=C\C/C=C\CCC(=O)OCC [DHA-E, ethyl docosahexaenoate] | increase in the CETP activity was confirmed | approximately equal to that of the high-fat diet group | An action of increasing the plasma LDL-C level was found |  |  | 
CC/C=C\C/C=C\C/C=C\C/C=C\C/C=C\CCCC(=O)OCC [EPA-E, ethyl icosapentate] | the action of suppressing the increase of the CETP activity was confirmed | lower than the control high-fat diet group | an action of suppressing the increase of the plasma LDL-C level was found | increase in the amount of fat was significantly suppressed | effective in suppressing the body weight gain | ineffective

Source: patent US9345681B2, “Anti-obesity agent comprising high-purity EPA” (MOCHIDA PHARMACEUTICAL CO., LTD., priority 2011, dated 2016)
